From US10617677B2, “Nuclear transport modulators and uses thereof” (Biogen MA Inc., priority 2012, dated 2020)

Assays:
[1] = system: inflammation-related CRM1 cargo proteins; assay: Immunofluorescence of nuclear localization of CRM1 cargos in HeLa and THP-1 cells; type: cell-based, human; conditions: 1-10 μM Compound 1 + 20 ng/mL TNFα, 4-24 h
Description: HeLa and THP-1 (human acute monocytic leukemia) cells were treated with inflammation inducing factor, TNFα, alone or in combination with 1-10 μM of Compound 1 for 4-24 h, and then were analyzed by immunofluorescence (IF) for the nuclear localization of inflammation-related CRM1 cargo proteins: IκB, Nrf2, HMGB1, FoxP3, FOXO1a, RxRα, PPARγ and NFκB (p65 subunit).
For the detection of IkB, Nrf2, RxRα and PPARγ localization, cells were pre-incubated with 10 μM Compound 1 for 30 minutes, followed by incubation with 20 ng/mL TNFα for 4 hrs in serum free media. […] IκB was detected by the primary rabbit monoclonal (E130) antibody from Abcam (ab32518); Nrf2 was detected by the primary rabbit polyclonal antibody from Santa Cruz (sc722); RxR alpha was detected by the primary rabbit polyclonal antibody from Santa Cruz (sc553); PPAR gamma was detected by the primary rabbit monoclonal […] antibody from Cell Signaling (#2443); Foxo1A was detected by the primary rabbit monoclonal [C29H4] antibody from Cell Signaling (#2880); HMGB1 was detected by the primary rabbit polyoclonal antibody from Abcam (ab18256); FoxP3 was detected by the primary rabbit polyclonal antibody from Abcam (ab10563); NFκB-p65 was detected by the primary rabbit monoclonal [C22B4] antibody from Cell Signaling (#4764). […]

A549 xenograft tumors = assay: A549 lung carcinoma xenograft in SCID mice; type: in vivo
Description: The A549 cell line was derived from explant culture of alveolar carcinoma tissue from a person. The cells were grown in Ham's F12-K tissue culture media with 10% fetal calf serum and 1% penicillin/streptomycin. Cells were routinely trypsinized and passaged 1:10. Thirty-two (32) female CB-17 SCID mice (Charles River Labs strain code 236), aged 5 to 6 weeks were used with a mean pre-treatment body weight of 16.3 grams. Mice were divided into four (4) groups of eight (8) prior to the initiation of treatment based on tumor volume. On the day of implantation, cells were washed in PBS, trypsinized and resuspended in complete media to a density of 2×10^7 cells/mL prior to being mixed with an equal volume of Matrigel. This mixture was then inoculated subcutaneously into mice in a volume of 0.1 mL using a 23G needle.
Animal weights and condition were recorded daily, and tumors were measured on Mondays, Wednesdays and Fridays with micro-calipers, and tumor volume was calculated as (length×width×width)/2.
Animals with weight loss of more than 20% of their starting weight were euthanized. Mice with weight loss of more than 15% of their starting weight were not treated again until weight loss recovered to less than 5% of their starting weight. Any animals with a tumor volume of more than 1500 mm^3 were euthanized.
Dosing solutions were prepared fresh on each day of dosing. Compound 2 was supplied as a lyophilized powder containing 69.61% Compound 2 with the balance made up of Pluronic F-68 and PVP K29/32. This was prepared by dissolving the lyophilized powder in sterile water. Cisplatin was dissolved at 5 mg/mL in DMSO and diluted 1:10 in sterile water for injection. All test articles were administered in a volume of 0.1 mL/10 g body weight.
Statistical differences between treatment groups were determined using Mann-Whitney Rank Sum or ANOVA tests with a critical value of 0.05.

[2] = system: anti-collagen antibody induced arthritis; assay: Anti-collagen antibody induced mouse model of rheumatoid arthritis (CAIA); type: in vivo, mice
Description: Twenty-four (24) male Balb/c mice, aged 6 to 8 weeks were used. […] On study Day 0 (study commencement), all mice were subjected to a 2 mg intravenous injection of ArthritoMAb™ antibody cocktail (MD Biosciences # S1203001) followed by an intraperitoneal injection of LPS ([…]) on study Day 3. […] Treatments were administered once daily on days 4, 6, 8 and 10 for all groups, except where dosing vacations applied. If an animal's weight dropped below 87% of its day 0 starting weight, the animal was not dosed until it gained weight equivalent to 90% or more of day 0 weight.
Arthritis development, clinical signs and body weights were monitored in all mice on study days 0, 3-8, 10 and 12. Observations included changes in skin, fur, eyes, mucous membranes, occurrence of secretions and excretions (e.g., diarrhea) and autonomic activity (e.g., lacrimation, salivation, piloerection, pupil size, unusual respiratory pattern). All paws (front left and right, and rear left and right) of each animal were examined for signs of arthritogenic responses prior to arthritis induction and test item or control item administration on study Day 0 and subsequently on study Days 3-8, 10 and 12 (study termination). Arthritis reactions were scored and recorded according to a 0-4 scale in ascending order of severity, as shown Table 5 below. Paw thickness was also measured using a dial caliper (Kroeplin, Munich, Germany).
The dose administered was calculated based on the assumption that the animals weighed, on average, 20 g. […] Vehicle for the vehicle control group was prepared by dissolving 0.6 g Pluronic and 0.6 g PVP in 100 mL distilled deionised water. The MAb stock solution (10 mg/mL) was supplied by MD Biosciences, Division of Morwell Diagnostics GmbH. LPS was diluted with PBS to achieve the appropriate concentration. Thorough vortexing was required just prior to its injection. […] A fixed volume of 200 μL was administered to each mouse.
Evaluation was primarily based on the mean values for arthritis scoring and paw thickness measurements. Where appropriate, analysis of the data by ANOVA with Tukey post hoc analysis was applied to determine significance of treatment effects.

With CC(C)(C)C(=O)NNC(=O)/C=C\n1cnc(-c2cc(C(F)(F)F)cc(C(F)(F)F)c2)n1 [Compound 1, (Z)-3-(3-(3,5-bis(trifluoromethyl)phenyl)-1H-1,2,4-triazol-1-yl)-N′-pivaloylacrylohydrazide] as the compound, how does the “nuclear localization of IκB, Nrf2, HMGB1, FoxP3, FOXO1a, RxRα, PPARγ and NFκB” value [1] read?
The value was “nuclear localization of the above cargos, even in the presence of TNFα”.

O=C(/C=C\n1cnc(-c2cc(C(F)(F)F)cc(C(F)(F)F)c2)n1)NNC(=O)CN1CCOCC1 [Compound 2, (Z)-3-(3-(3,5-bis(trifluoromethyl)phenyl)-1H-1,2,4-triazol-1-yl)-N′-(2-morpholinoacetyl)acrylohydrazide] was tested. Which “tumor growth versus vehicle control group (mean AUC of tumor volume, one-way ANOVA)” value (A549 xenograft tumors; Compound 2 5 or 10 mg/kg PO, cisplatin 5 mg/kg IP) did it give?
Its value is “antitumor effect at both 5 mg/kg and 10 mg/kg doses in a dose dependent manner”.

What about the mean tumor volume (A549 xenograft tumors; Day 1, 5 mg/kg PO MWF) of the same compound?
The mean tumor volume was 101 mm^3.

What about the mean tumor volume (A549 xenograft tumors; Day 1, 10 mg/kg PO MWF) of the same compound?
Its mean tumor volume is 101 mm^3.

What about the mean tumor volume (A549 xenograft tumors; Day 29, 5 mg/kg PO MWF) of the same compound?
The mean tumor volume was 1231 mm^3.

And the mean tumor volume (A549 xenograft tumors; Day 29, 10 mg/kg PO MWF)?
The mean tumor volume was 686 mm^3.

What about the “total arthritis score compared to vehicle” value ([2]; 4 mg/kg orally, days 6-12) of the same compound?
Its value is “significantly reduced total arthritis scores”.

And the “anti-arthritic activity (mean arthritis scores, paw thickness)” value ([2]; 7.5 mg/kg or 4 mg/kg orally)?
The value was “significant anti-arthritic activity”.

What about the “rear paw arthritis score compared to vehicle” value ([2]; 7.5 mg/kg or 4 mg/kg orally, days 5-12) of the same compound?
Its value is “significantly reduced rear paw arthritis scores”.

What about the “total arthritis score compared to vehicle” value ([2]; 7.5 mg/kg orally, days 5-12) of the same compound?
Its value is “significantly reduced total arthritis scores”.
